PMC8164657, “Intraoperative visualization of nerves using a myelin protein-zero specific fluorescent tracer” (EJNMMI Research, 2021)
Values after ≈ are worked out from the molar mass of the structure shown. Values joined by “and” are separate entries in the source; they are usually repeats but may differ in a detail not shown here. Identical values can stand only once. Residues, ends and D or L forms follow the SMILES beside them. *: point of attachment. X1 = CC1(C)C(/C=C/C=C/C=C2/N(CCCCS(=O)(=O)O)c3ccc(S(=O)(=O)O)cc3C2(C)C)=[N+](CCCCCC(=O)NCCN2C(=O)CC(*)C2=O)c2ccc(S(=O)(=O)[O-])cc21; Cy5 = far-red cyanine dye Cy5 on Cys

T1: P0 (P0-expressing RT4 D6P2T cells) (Rattus norvegicus, UniProt P06907)
T1 construct: was performed using P0-expressing RT4 D6P2T cells; host or cells: RT4 D6P2T Schwannoma cells
T1 sequence (P06907 30-248): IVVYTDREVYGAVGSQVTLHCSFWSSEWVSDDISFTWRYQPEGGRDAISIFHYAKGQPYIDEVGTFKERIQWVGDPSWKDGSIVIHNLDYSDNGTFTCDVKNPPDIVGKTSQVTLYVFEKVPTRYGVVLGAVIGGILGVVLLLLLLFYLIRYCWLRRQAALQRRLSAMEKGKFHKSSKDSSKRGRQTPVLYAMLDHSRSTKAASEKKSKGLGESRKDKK

T2: Myelin protein zero (P0) (Rattus norvegicus, UniProt P06907)
T2 chain: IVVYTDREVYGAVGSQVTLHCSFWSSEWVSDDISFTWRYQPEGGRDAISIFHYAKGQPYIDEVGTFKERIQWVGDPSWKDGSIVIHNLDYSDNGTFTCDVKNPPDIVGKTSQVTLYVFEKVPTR


What was measured:
Solubility in H2O = assay type: physicochemical; settings: water; saturated solution in H2O at r.t., centrifugation, absorption of supernatant (UV/Vis)
[1] = molecular target: T1, P0 (P0-expressing RT4 D6P2T cells); test: Flow cytometric saturation binding (KD); settings: saturation binding 0–2000 nM, flow cytometry APC-A channel, triplicate, repeated at least three times
Description: Analysis of the binding affinity (KD) of Cy5-P0_1–25, Cy5-P0_41–65, Cy5-P0_61–85, Cy5-P0_81–105, Cy5-P0_95–120 and Cy5-P0_101–125 for P0 was performed using P0-expressing RT4 D6P2T cells and a previously described flow cytometric method. For saturation, binding experiments were performed for each of the fluorescent peptides in a concentration range of 0–2000 nM. All measurements were taken in triplicate, and experiments were repeated at least three times per tracer. Fluorescence was measured using a FACSCanto II flow cytometry device (BD Biosciences) in the APC-A channel. The normalized geometric means were fitted with equations in the GraphPad Prism 5 software. A fluorescence-linked immunoabsorbent assay (FLISA) that was used to confirm the specificity of Cy5-P0_101–125 for P0 is described in Additional file 1: Fluorescence-linked immunoabsorbent assay.

[2] = Stability at different temperatures; settings: after 4 hr at -20 °C, PBS, 10–0.6 µM, relative to t=0, n = 6
Description: A stock solution of either non-functionalized Cy5 or Cy5-P0101-125 (10 µM in PBS) was diluted
1:1 in PBS to create a concentration range between 10 –0.6 µM. The absorbance and
fluorescence intensities of each sample were measured (t=0 h) prior to storing the samples
at different temperatures (i.e., -20, 0, 20 and 37 °C). After t = 4 h, the absorbance and
fluorescence intensities of each sample was measured. The relative intensities (compared to
t=0) of each concentration were averaged to obtain n = 6 per temperature setting.

[3] = ref Spa et al (2); cited from earlier work
Stability in serum = settings: 24 h at 37 °C, % stable
[4] = design: method as in 2 sources, one per row (each row's own in cited_ref): ref Spa et al (2) ||| ref (2) (a number printed in a supplementary file, which may have a reference list of its own: not looked up in the article's list); settings: cited from earlier work
Myelin protein zero (P0) = molecular target: T2, Myelin protein zero (P0); test: flow cytometry saturation binding (RT4 D6P2T cells)

Row | Molecule | solubility thermodynamic (Solubility in H2O) [µM] | Kd [1] [nM] | other results
1 | CC[C@H](C)[C@H](N)C(=O)N[C@H](C(=O)N[C@H](C(=O)N[C@@H](Cc1ccc(O)cc1)C(=O)N[C@H](C(=O)N[C@@H](CC(=O)O)C(=O)N[C@@H](CCCNC(=N)N)C(=O)N[C@@H](CCC(=O)O)C(=O)N[C@H](C(=O)N[C@@H](Cc1c[nH]cn1)C(=O)NCC(=O)N[C@@H](C)C(=O)N[C@H](C(=O)NCC(=O)N[C@@H](CO)C(=O)N[C@@H](CCCNC(=N)N)C(=O)N[C@H](C(=O)N[C@H](C(=O)N[C@@H](CC(C)C)C(=O)N[C@@H](Cc1c[nH]cn1)C(=O)N[C@@H](CSC1CC(=O)N(CCNC(=O)CCCCC[N+]2=C(/C=C/C=C/C=C3/N(CCCCS(=O)(=O)O)c4ccc(S(=O)(=O)O)cc4C3(C)C)C(C)(C)c3cc(S(=O)(=O)[O-])ccc32)C1=O)C(=O)N[C@@H](CO)C(=O)N[C@@H](Cc1ccccc1)C(=O)N[C@@H](Cc1c[nH]c2ccccc12)C(=O)N[C@@H](CO)C(N)=O)[C@@H](C)O)C(C)C)C(C)C)C(C)C)[C@@H](C)O)C(C)C)C(C)C (some centres unmarked) [Cy5-P0_1–25] (H-IVVYTDREVHGAVGSRVTLHC(X1)SFWS-NH2) | 12 (≈ 44.5 µg/mL) | > 1000 | 
2 | CC[C@H](C)[C@H](NC(=O)[C@H](C)NC(=O)[C@H](CC(=O)O)NC(=O)[C@H](CCCNC(=N)N)NC(=O)CNC(=O)CNC(=O)[C@H](CCC(=O)O)NC(=O)[C@@H]1CCCN1C(C)=O)C(=O)N[C@@H](CO)C(=O)N[C@H](C(=O)N[C@@H](Cc1ccccc1)C(=O)N[C@@H](Cc1c[nH]cn1)C(=O)N[C@@H](Cc1ccc(O)cc1)C(=O)N[C@@H](C)C(=O)N[C@@H](CCCCN)C(=O)NCC(=O)N[C@@H](CCC(N)=O)C(=O)N1CCC[C@H]1C(=O)N[C@@H](Cc1ccc(O)cc1)C(=O)N[C@H](C(=O)N[C@@H](CC(=O)O)C(=O)N[C@@H](CCC(=O)O)C(=O)N[C@H](C(=O)NCC(=O)N[C@H](C(=O)N[C@@H](CSC1CC(=O)N(CCNC(=O)CCCCC[N+]2=C(/C=C/C=C/C=C3/N(CCCCS(=O)(=O)O)c4ccc(S(=O)(=O)O)cc4C3(C)C)C(C)(C)c3cc(S(=O)(=O)[O-])ccc32)C1=O)C(N)=O)[C@@H](C)O)C(C)C)[C@@H](C)CC)[C@@H](C)CC (some centres unmarked) [Cy5-P0_41–65] (Ac-PEGGRDAISIFHYAKGQPYIDEVGTC(X1)-NH2) | 45 (≈ 169 µg/mL) | > 1000 | 
3 | CC[C@H](C)[C@H](NC(=O)[C@H](CCCNC(=N)N)NC(=O)[C@H](CCC(=O)O)NC(=O)[C@H](CCCCN)NC(=O)[C@H](Cc1ccccc1)NC(=O)[C@@H](NC(=O)CNC(=O)[C@@H](NC(=O)[C@H](CCC(=O)O)NC(=O)[C@H](CC(=O)O)NC(C)=O)C(C)C)[C@@H](C)O)C(=O)N[C@@H](CCC(N)=O)C(=O)N[C@@H](Cc1c[nH]c2ccccc12)C(=O)N[C@H](C(=O)NCC(=O)N[C@@H](CC(=O)O)C(=O)N1CCC[C@H]1C(=O)N[C@@H](CCCNC(=N)N)C(=O)N[C@@H](Cc1c[nH]c2ccccc12)C(=O)N[C@@H](CCCCN)C(=O)N[C@@H](CC(=O)O)C(=O)NCC(=O)N[C@@H](CO)C(=O)N[C@H](C(=O)N[C@H](C(=O)N[C@H](C(=O)N[C@@H](CSC1CC(=O)N(CCNC(=O)CCCCC[N+]2=C(/C=C/C=C/C=C3/N(CCCCS(=O)(=O)O)c4ccc(S(=O)(=O)O)cc4C3(C)C)C(C)(C)c3cc(S(=O)(=O)[O-])ccc32)C1=O)C(N)=O)[C@@H](C)CC)C(C)C)[C@@H](C)CC)C(C)C (some centres unmarked) [Cy5-P0_61–85] (Ac-DEVGTFKERIQWVGDPRWKDGSIVIC(X1)-NH2) | 6 (≈ 23.8 µg/mL) | > 1000 | 
4 | CC[C@H](C)[C@H](NC(=O)[C@H](CO)NC(=O)CNC(C)=O)C(=O)N[C@H](C(=O)N[C@H](C(=O)N[C@@H](Cc1c[nH]cn1)C(=O)N[C@@H](CC(N)=O)C(=O)N[C@@H](CC(C)C)C(=O)N[C@@H](CC(=O)O)C(=O)N[C@@H](Cc1ccc(O)cc1)C(=O)N[C@@H](CO)C(=O)N[C@@H](CC(=O)O)C(=O)N[C@@H](CC(N)=O)C(=O)NCC(=O)N[C@H](C(=O)N[C@@H](Cc1ccccc1)C(=O)N[C@H](C(=O)N[C@@H](CSC1CC(=O)N(CCNC(=O)CCCCC[N+]2=C(/C=C/C=C/C=C3/N(CCCCS(=O)(=O)O)c4ccc(S(=O)(=O)O)cc4C3(C)C)C(C)(C)c3cc(S(=O)(=O)[O-])ccc32)C1=O)C(=O)N[C@@H](CC(=O)O)C(=O)N[C@H](C(=O)N[C@@H](CCCCN)C(=O)N[C@@H](CC(N)=O)C(=O)N1CCC[C@H]1C(=O)N1CCC[C@H]1C(=O)N[C@@H](CC(=O)O)C(N)=O)C(C)C)[C@@H](C)O)[C@@H](C)O)[C@@H](C)CC)C(C)C (some centres unmarked) [Cy5-P0_81–105] (Ac-GSIVIHNLDYSDNGTFTC(X1)DVKNPPD-NH2) | 68 (≈ 248 µg/mL) | > 1000 | 
5 | CC[C@H](C)[C@H](NC(=O)[C@H](CC(=O)O)NC(=O)[C@@H]1CCCN1C(=O)[C@@H]1CCCN1C(=O)[C@H](CC(N)=O)NC(=O)[C@H](CCCCN)NC(=O)[C@@H](NC(=O)[C@H](CC(=O)O)NC(=O)[C@H](C)NC(=O)[C@@H](NC(=O)[C@H](Cc1ccccc1)NC(=O)[C@@H](NC(C)=O)[C@@H](C)O)[C@@H](C)O)C(C)C)C(=O)N[C@H](C(=O)NCC(=O)N[C@@H](CCCCN)C(=O)N[C@H](C(=O)N[C@@H](CO)C(=O)N[C@@H](CCC(N)=O)C(=O)N[C@H](C(=O)N[C@H](C(=O)N[C@@H](CC(C)C)C(=O)N[C@@H](Cc1ccc(O)cc1)C(=O)N[C@H](C(=O)N[C@@H](Cc1ccccc1)C(=O)N[C@@H](CCC(=O)O)C(=O)N[C@@H](CCCCN)C(=O)N[C@@H](CSC1CC(=O)N(CCNC(=O)CCCCC[N+]2=C(/C=C/C=C/C=C3/N(CCCCS(=O)(=O)O)c4ccc(S(=O)(=O)O)cc4C3(C)C)C(C)(C)c3cc(S(=O)(=O)[O-])ccc32)C1=O)C(N)=O)C(C)C)[C@@H](C)O)C(C)C)[C@@H](C)O)C(C)C (some centres unmarked) [Cy5-P0_95–120] (Ac-TFTADVKNPPDIVGKTSQVTLYVFEKC(X1)-NH2) | 150 (≈ 589 µg/mL) | > 1000 | 
6 | CCN1/C(=C/C=C/C=C/C2=[N+](CCCCCC(=O)O)c3ccc(S(=O)(=O)O)cc3C2(C)C)C(C)(C)c2cc(S(=O)(=O)[O-])ccc21 [Cy5] |  |  | remaining absorbance [2]: 66 ± 8%; remaining fluorescence [2]: 80 ± 10%; Serum protein binding [3]: 6% ± 5% and 6%; Stability in serum (Stability in serum): 98%; degradation when incubated with glutathione ([4]; ref (2)): 1%; Stability towards glutathione ([4]; ref Spa et al (2)): 99%
7 | Ac-KNPPDIVGKTSQVTLYVFEKVPTRYC(Cy5)-NH2 [Cy5-P0(101-125)] |  |  | Kd (Myelin protein zero (P0)): 105 nM
